Measurements taken from patent publication US20250057813A1, “APOPTOSIS RELATED PROTEIN IN THE TGF-BETA SIGNALING PATHWAY (ARTS) MIMETIC COMPOUNDS, COMPOSITIONS, METHODS AND USES THEREOF IN INDUCTION OF APOPTOSIS” (Carmel-Haifa University Economic Corporation Ltd., priority 2022, published 2025).
Entries after “also recorded” stand apart in the source; their conditions may differ.

Columns and labels:
binding of XIAP to Bcl-2 = molecular target: T1, binding of XIAP to Bcl-2 (Homo sapiens, UniProt P10415+P98170); assay: BiFC assay in A375 melanoma cells (Bcl-2-VC and XIAP-VN); format: cell-based; conditions: 20 μM B3, 24 h
T1 construct: expressed in transfected cells; host or cells: A375 melanoma cells
Description: The split-Venus BiFC system was used to evaluate close proximity indicating possible direct binding between pairs of proteins. The proteins were fused either to the N-terminal part of the Venus-YFP (yellow fluorescence protein) (VN) or the C-terminal part (VC). All Venus fragments were fused to the C-terminal sequences of these proteins. The Jun and Fos pair was used as a positive control (P.C.), and the Jun and FosdeltaZIP pair was used as a negative control (N.C.). A vector encoding dsRed was used as a transfection efficiency marker. Cells were seeded in 12 well plates overnight. Cells were then transfected with (Bcl-2-VC, ARTS-VN, XIAP-VN and XIAP-VC) for 24-36 hours. Cells were then treated with apoptotic inducing reagents for 24 hrs.

Jurkat cell lines = assay: PrestoBlue viability assay; format: cell-based; conditions: 20 μM B3 vs 12.5 μM Etoposide, 24 h
XIAP = XIAP (Homo sapiens, UniProt P98170); assay: Nano-DSF binding assay (Crelux); conditions: binding curve, dose response
HCT116 WT cells = assay: Western blot analysis of HCT116 WT cells; format: cell-based
Method: (§1) Cells were lysed in whole-cell extract buffer [25 mM HEPES, pH 7.7, […], 1.5 mM MgCl2, 0.2 mM EDTA, 0.1% Triton X-100, 100 μg/ml phenylmethylsulfonyl fluoride (PMSF) and protease inhibitor cocktail (Roche, 1:100 dilution)] and placed on ice for 30 min (vortexing once after 15 min). After 30 minutes, the samples were centrifuged at 13,000×g for 10 minutes at 4° C. The supernatants containing total protein were measured for protein concentration using Bio-Rad Protein Assay Dye Reagent Concentrate Kit. 40 to […] was separated by sodium dodecyl sulfate-polyacrylamide gel electrophoresis (SDS-PAGE) (12% or 7.5%), followed by transfer to a nitrocellulose membrane. The membranes were blocked with 5% (w/v) non-fat dried skimmed milk powder in PBS supplemented with 0.05% Tween-20 (PBS-T) for 1 h at RT. Next, primary antibodies were added at 4° C. overnight or for 2 h at room temperature. Membranes were then incubated with secondary antibody for 1 h at RT and washed three times for 15 min each with PBS-T. Western Bright ECL (Advansta) was added to the membrane for 30-60 s and analyzed using Image Quant LAS-4000 (GE Healthcare Life Sciences) and Image Quant LAS-4000 software (GE Healthcare Life Sciences).

[1] = tested on: A375 human melanoma cells; assay: SDS PAGE and Western blot analysis of A375 cells; format: cell-based
Method: The cells were lysed in WCE (whole-cell extract) buffer [25 mM Hepes, pH 7.7, 0.3M NaCl, 1.5 mM MgCl2, 0.2 mM EDTA, 0.1% Triton X-100, 100[μg/ml PMSF and protease inhibitor cocktail (Roche, 1:100 dilution)]. 100 μg of total cell protein, measured with the Bio-Rad Protein Assay kit, were separated by SDS-PAGE (12%) followed by transfer for 2 h on to a nitrocellulose membrane. The membrane was blocked with 5% (w/v) non-fat dried skimmed milk powder in PBS supplemented with 0.05% Tween20 (PBS-T) for 1 hour at room temperature (R.T). Membrane was then probed with primary antibody at 4° C. overnight. Next, the membrane was incubated with the appropriate HRP-conjugated secondary antibody, for 1 hour at R.T. and washed 15 min ×3 with PBS-T. WesternBright ECL (Advansta) was added to the membrane for 2 min and analyzed using ImageQuant LAS-4000 analyzer (GE Healthcare Life Sciences) & “ImageQuant LAS-4000” software (GE Healthcare Life Sciences). Densitometry analysis was performed using ImageQuant total lab 7 (GE Healthcare Life Sciences), image analysis software.
as §1

[2] = molecular target: T2, p53 ubiquitylation by XIAP (Homo sapiens, UniProt P98170); assay: In vitro ubiquitylation assay, recombinant GST-XIAP and p53; format: biochemical; conditions: 20 and 40 μM B3, 1 hour at 37C
T2 construct: host or cells: bacteria (GST-XIAP)
Method: Bacterially expressed His-ARTS was purified using fast protein liquid chromatography (FPLC), and bacterially expressed GST-XIAP was purified using glutathione beads. P53 recombinant protein was purchased from R&D (cat #SP-450). Recombinant p53 and GST-XIAP were incubated. E1, UbcH5b, ubiquitin (Ub), and the appropriate E3 in conjugation buffer (20 mM Tris-Cl [pH 7.6], 100 mM KCl, 5 mM MgCl2, and 1 mM DTT) containing 2 mM ATP at 37C for 1 hour.

XIAP-BIR3 = molecular target: T3, XIAP-BIR3 (Homo sapiens, UniProt P98170); assay: MST binding of B3 to fluorescently labelled recombinant XIAP; conditions: spread printed +/−11 μM, read-out: Kd, direct binding to XIAP-BIR3
T3 construct: fused on or other part: NT650 fluorescent dye attached covalently by maleimide coupling; the protein is otherwise untagged
Method: (§2) Microscale thermophoresis (MST) binding assays were performed by CreLux, a WuXi AppTech company in Germany, using recombinant ARTS, XIAP, Bcl-2 and cIAP1 proteins. Specifically, for performing experiments with untagged XIAP, a fluorescent label (NT650) was covalently attached to the protein (Maleimide coupling). The labelling was performed in a buffer containing 50 mM HEPES pH 7.0, 150 mM NaCl and 0.005% Tween-20.
as §2, with “ARTS” for “ARTS, XIAP, Bcl-2”, “XIAP” for “cIAP1”, “labeling” for “labelling”, “NaCl,” for “NaCl”, “Tween-20. A detailed description is provided in the Supplementary Materials and methods.” for “Tween-20.”

MEF cells = assay: Western blot analysis of MEF cells (WT and XIAP KO); format: cell-based, mouse; conditions: 20 μM B3 for 2, 4, 6, 16 hours
Method: as §1

T1 sequence (P98170 whole entry): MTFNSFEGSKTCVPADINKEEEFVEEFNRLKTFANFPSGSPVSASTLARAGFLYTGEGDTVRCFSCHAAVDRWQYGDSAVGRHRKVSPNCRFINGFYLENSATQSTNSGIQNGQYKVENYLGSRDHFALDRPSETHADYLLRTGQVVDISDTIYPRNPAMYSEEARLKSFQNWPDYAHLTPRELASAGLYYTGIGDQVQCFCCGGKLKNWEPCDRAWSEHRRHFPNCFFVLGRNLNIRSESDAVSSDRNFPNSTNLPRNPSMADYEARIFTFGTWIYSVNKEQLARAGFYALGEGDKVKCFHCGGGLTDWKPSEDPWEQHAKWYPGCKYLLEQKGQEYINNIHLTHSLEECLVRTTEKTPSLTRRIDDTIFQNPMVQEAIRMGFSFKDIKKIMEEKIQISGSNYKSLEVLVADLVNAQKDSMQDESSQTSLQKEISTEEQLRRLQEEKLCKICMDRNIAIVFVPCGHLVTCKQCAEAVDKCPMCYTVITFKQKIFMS
T1 sequence (P10415 whole entry): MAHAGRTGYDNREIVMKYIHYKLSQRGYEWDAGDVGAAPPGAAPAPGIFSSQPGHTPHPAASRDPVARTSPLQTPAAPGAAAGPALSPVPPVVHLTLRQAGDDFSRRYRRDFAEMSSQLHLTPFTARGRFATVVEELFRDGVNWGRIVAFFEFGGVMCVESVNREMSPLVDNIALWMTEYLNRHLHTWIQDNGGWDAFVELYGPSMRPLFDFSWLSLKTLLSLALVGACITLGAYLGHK
T2 sequence (P98170 whole entry): as the sequence (P98170 whole entry) above
Chain of XIAP (P98170 whole entry): as above
T3 sequence (P98170 241-356 limits assumed): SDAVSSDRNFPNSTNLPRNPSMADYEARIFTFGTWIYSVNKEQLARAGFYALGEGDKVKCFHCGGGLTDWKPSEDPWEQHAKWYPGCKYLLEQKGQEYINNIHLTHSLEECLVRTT

For `Cn1ccnc1C(=O)c1ccc(NC(=O)C(=O)N[C@H](CO)Cc2ccccc2)cc1` [B3, (S)-N1-(1-hydroxy-3-phenylpropan-2-yl)-N2-(4-(1-methyl-1H-imidazole-2-carbonyl)phenyl)oxalamide], the “binding of XIAP to Bcl-2” value (binding of XIAP to Bcl-2) was “slightly increased; also recorded: increased”, the “cell death compared with Etoposide” value (Jurkat cell lines) was “as efficient as the strong pro-apoptotic chemotherapeutic agent Etoposide” and the “direct binding to XIAP” value (XIAP) was “binds with high affinity”. For the same compound, the XIAP levels (HCT116 WT cells; 20 uM, 24 hrs) was “decrease”, the “cleavage of early apoptotic marker Caspase 9” value (HCT116 WT cells; 20 uM, 24 hrs) was “increase” and the MDM2 levels (HCT116 WT cells; 10, 20, 30 μM B3, 24 hours) was “reduction”. The XIAP levels (HCT116 WT cells; 10, 20, 30 μM B3, 24 hours) was “reduction”, the “cPARP or caspase3” value (HCT116 WT cells; 10, 20, 30 μM B3, 24 hours) was “elevation” and the p53 levels (HCT116 WT cells; 10, 20, 30 μM B3, 24 hours) was “elevation”. For the same compound, the Bcl-2 levels ([1]; 20 μM, 24 hrs) was “clearly reduced”, the XIAP levels ([1]; 20 μM, 24 hrs) was “clearly reduced” and the “cleavage of Caspase 3” value ([1]; 20 μM, 24 hrs) was “increased”. The “cleavage of Caspase 9” value ([1]; 20 μM, 24 hrs) was “increased”, the “cleavage of PARP” value ([1]; 20 μM, 24 hrs) was “increased” and the MDM2 levels ([1]; 20, 30, 40 μM B3, 24 hours) was “reduction”. For the same compound, the XIAP levels ([1]; 20, 30, 40 μM B3, 24 hours) was “reduction”, the “cPARP or caspase3” value ([1]; 20, 30, 40 μM B3, 24 hours) was “elevation” and the p53 levels ([1]; 20, 30, 40 μM B3, 24 hours) was “elevation”. For the same compound, the ARTS levels ([1]; B3 in combined treatment with ABT-199, 24 hrs) was “downregulated”, the Bcl-2 levels ([1]; six hours of B3 treatment) was “decreased” and the “p53 Ubiquitylation by XIAP” value [2] was “dose-dependent inhibition”. For the same compound, the Kd (XIAP-BIR3) was 36 µM, the MDM2 levels (MEF cells) was “reduction” and the XIAP levels (MEF cells) was “reduction”. The “cPARP or caspase3” value (MEF cells) was “elevation” and the p53 levels (MEF cells) was “elevation”.
